From ChEMBL document CHEMBL1158421, “Inhibitory effect of a dimerization-arm-mimetic peptide on EGF receptor activation” (Bioorg Med Chem Lett, 2009) come the findings set out here.

Molecules are shown by their SMILES. The source made the active and inactive calls. No cut-off for these calls is given here. Where a SMILES comes first, the peptide text is derived from it. Bridges are numbered along the chain shown (N, C = ends).

Assay type in all cases: cell-based
Conditions in all cases: A-431

For experiment [1], the target named is Epidermal growth factor receptor (Homo sapiens) (UniProt P00533). Description: Reduction in EGF-induced dimerization of human EGFR in A431 cells at 1 uM preincubated for 30 mins before EGF challenge by SDS-PAGE relative to control. On the set-up: scale not given: the % may be the effect or the level left.
For experiment [2] the target is unchanged. Kind of experiment: Inhibition of EGF-stimulated human EGFR in intact A431 cells assessed as suppression of residual autophosphorylation at 0.1 uM preincubated for 3 hrs before EGF challenge by SDS-PAGE relative to control.
Experiment [3] has the same target. Description: Inhibition of EGF-stimulated human EGFR in intact A431 cells assessed as suppression of residual autophosphorylation at 10 uM preincubated for 3 hrs before EGF challenge by SDS-PAGE relative to control.
For experiment [4] the target is unchanged. Description: Reduction in EGF-induced dimerization of human EGFR in A431 cells preincubated for 30 mins before EGF challenge by SDS-PAGE.
Experiment [5] shares this target. Kind of experiment: Inhibition of EGF-stimulated human EGFR in intact A431 cells assessed as suppression of residual autophosphorylation at 1 uM preincubated for 3 hrs before EGF challenge by SDS-PAGE relative to control.
Experiment [6] shares this target. Kind of experiment: Inhibition of EGF-induced dimerization of human EGFR in A431 cells at >1 uM preincubated for 30 mins before EGF challenge by SDS-PAGE.
For experiment [7] the target is unchanged. Kind of experiment: Reduction in EGF-induced dimerization of human EGFR in A431 cells at 0.01 to 1 uM preincubated for 30 mins before EGF challenge by SDS-PAGE.

Sequence of Epidermal growth factor receptor (Homo sapiens) (P00533 whole entry): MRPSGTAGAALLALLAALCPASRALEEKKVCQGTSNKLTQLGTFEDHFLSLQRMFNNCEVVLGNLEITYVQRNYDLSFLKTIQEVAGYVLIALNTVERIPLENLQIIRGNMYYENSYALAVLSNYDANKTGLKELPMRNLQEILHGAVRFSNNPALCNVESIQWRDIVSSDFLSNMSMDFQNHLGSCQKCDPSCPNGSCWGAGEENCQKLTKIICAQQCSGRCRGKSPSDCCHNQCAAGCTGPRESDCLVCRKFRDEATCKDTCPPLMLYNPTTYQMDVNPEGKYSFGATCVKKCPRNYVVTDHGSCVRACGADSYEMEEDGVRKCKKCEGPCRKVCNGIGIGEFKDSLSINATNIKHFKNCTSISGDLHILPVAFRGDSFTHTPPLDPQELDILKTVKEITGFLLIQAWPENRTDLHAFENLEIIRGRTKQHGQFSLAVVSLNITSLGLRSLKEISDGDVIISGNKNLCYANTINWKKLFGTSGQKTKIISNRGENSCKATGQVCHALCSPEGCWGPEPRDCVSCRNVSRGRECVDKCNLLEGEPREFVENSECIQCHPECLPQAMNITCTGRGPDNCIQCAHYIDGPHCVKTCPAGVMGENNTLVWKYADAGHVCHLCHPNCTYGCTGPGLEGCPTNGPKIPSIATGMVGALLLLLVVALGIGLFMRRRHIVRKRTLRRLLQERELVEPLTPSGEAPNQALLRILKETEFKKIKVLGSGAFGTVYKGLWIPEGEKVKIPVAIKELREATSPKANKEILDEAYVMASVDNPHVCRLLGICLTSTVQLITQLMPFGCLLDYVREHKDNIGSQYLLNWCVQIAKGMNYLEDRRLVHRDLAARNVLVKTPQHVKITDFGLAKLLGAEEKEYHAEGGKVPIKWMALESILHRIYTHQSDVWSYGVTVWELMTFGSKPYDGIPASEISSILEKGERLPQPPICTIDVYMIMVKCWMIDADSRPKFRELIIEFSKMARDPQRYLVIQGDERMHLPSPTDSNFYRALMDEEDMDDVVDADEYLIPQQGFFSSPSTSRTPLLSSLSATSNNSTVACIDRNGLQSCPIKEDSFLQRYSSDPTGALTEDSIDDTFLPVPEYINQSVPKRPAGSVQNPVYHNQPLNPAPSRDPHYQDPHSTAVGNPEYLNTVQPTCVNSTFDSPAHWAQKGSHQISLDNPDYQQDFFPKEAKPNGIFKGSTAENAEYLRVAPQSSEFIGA

For `CSCC[C@@H]1NC(=O)[C@H](CCC(N)=O)NC(=O)[C@H](Cc2ccc(O)cc2)NC(=O)[C@H]([C@@H](C)O)NC(=O)[C@H]([C@@H](C)O)NC(=O)[C@@H]2CCCN2C(=O)[C@H](CC(N)=O)NC(=O)[C@H](Cc2ccc(O)cc2)NC(=O)[C@@H](N)CSSC[C@@H](C(=O)O)NC1=O` (H-CYNPTTYQMC-OH; disulfide 1-10), the Activity was < 80% in experiment [1]; 61% in experiment [2]; 30% in experiment [3]; “Dose-dependent effect” in experiment [4]; 51% in experiment [5]. The outcome in experiment [6] was inactive.
With `CSCC[C@H](NC(=O)[C@H](CCC(N)=O)NC(=O)[C@H](Cc1ccc(O)cc1)NC(=O)[C@@H](NC(=O)[C@@H](NC(=O)[C@@H]1CCCN1C(=O)[C@H](CC(N)=O)NC(=O)[C@H](Cc1ccc(O)cc1)NC(=O)[C@@H](N)CS)[C@@H](C)O)[C@@H](C)O)C(=O)N[C@@H](CS)C(=O)O` (H-CYNPTTYQMC-OH), the result in experiment [7] was inactive.
